According to patent US10632147B2, “Methods and compositions for treating inflammatory disorders” (priority 2007, dated 2020):

Key:
[1] = test system: Enterococcus faecium (VRE) ATCC #51559; experiment: Microbial Time Kill Assay; assay type: cell-based; conditions: 150 ppm AFC, 15 second contact time
[2] = test system: Staphylococcus aureus ATCC #6538; experiment: Microbial Time Kill Assay; assay type: cell-based; conditions: 150 ppm AFC, 15 second contact time
[3] = test system: Enterobacter aerogenes ATCC #51342; experiment: Microbial Time Kill Assay; assay type: cell-based; conditions: 150 ppm AFC, 15 second contact time
[4] = test system: Enterococcus faecium ATCC #35667; experiment: Microbial Time Kill Assay; assay type: cell-based; conditions: 150 ppm AFC, 15 second contact time
[5] = test system: Haemophilus influenza ATCC #8149; experiment: Microbial Time Kill Assay; assay type: cell-based; conditions: 150 ppm AFC, 15 second contact time
[6] = test system: Klebsiella oxytoca ATCC #12833; experiment: Microbial Time Kill Assay; assay type: cell-based; conditions: 150 ppm AFC, 15 second contact time
[7] = test system: Micrococcus luteus ATCC #10240; experiment: Microbial Time Kill Assay; assay type: cell-based; conditions: 150 ppm AFC, 15 second contact time
[8] = test system: Serratia marcescens ATCC #14756; experiment: Microbial Time Kill Assay; assay type: cell-based; conditions: 150 ppm AFC, 15 second contact time
[9] = test system: Staphylococcus epidermidis ATCC #14990; experiment: Microbial Time Kill Assay; assay type: cell-based; conditions: 150 ppm AFC, 15 second contact time
[10] = test system: Staphylococcus hominis ATCC #25615; experiment: Microbial Time Kill Assay; assay type: cell-based; conditions: 150 ppm AFC, 15 second contact time
[11] = test system: Staphylococcus saprophyticus ATCC #15305; experiment: Microbial Time Kill Assay; assay type: cell-based; conditions: 150 ppm AFC, 15 second contact time
[12] = test system: Streptococcus pyogenes ATCC #19615; experiment: Microbial Time Kill Assay; assay type: cell-based; conditions: 150 ppm AFC, 15 second contact time
[13] = test system: Clostridium difficile (spores); experiment: Endospore Time Kill Assay; assay type: cell-based; conditions: for Log Reduction / Vashe Log10 / Vashe Survivors / % Reduction (% Kill): ≤150 ppm AFC
[14] = test system: Staphylococcus aureus ATCC 6538; experiment: Bactericidal suspension test; assay type: cell-based
[15] = test system: Aspergillus niger ATCC 16404; experiment: Fungicidal suspension test; assay type: cell-based
Method: (§1) Fungicidal activity tests were performed using hypochlorous acid (140-150 ppm) against Candida albicans ATCC 10231 and Aspergillus niger ATCC 16404. Stock culture of Candida albicans ATCC 10231 and Aspergillus niger ATCC 16404 were grown and maintained on Malt Extract Agar at 30° C. […] All samples were serially diluted, plated out on Tryptic Soy Agar, incubated at 37° C. for 3 days and colonies forming units counted.

[16] = test system: Candida albicans ATCC 10231; experiment: Fungicidal suspension test; assay type: cell-based
Method: as §1

[17] = test system: Bacillus subtilis var. niger CIP 7 718; experiment: Sporicidal suspension test; assay type: cell-based
Method: (§2) Sporicidal activity tests were performed using hypochlorous acid solution against Bacillus cereus CIP 7803, Bacillus subtilis CIP 7718, Clostridium sporogenes CIP 7939. Stock spore suspensions of Bacillus cereus CIP 7803, Bacillus subtilis CIP 7718, Clostridium sporogenes CIP 7939 were obtained from the Pasteur Institute's National Collection for the Culture of micro-organisms. Spore suspensions (1 ml) were added to 4 ml of sterile distilled water and 5 ml of hypochlorous acid solution at a range of concentrations at 20° C. After an exposure time of 60 minutes, 1 ml samples were neutralized using standard quench solution. All samples were serially diluted, plated out on selective agar, incubated aerobically or anaerobically at either 30° C. or 37° C. for 72 hours and colonies forming units counted.

[18] = test system: Clostridium sporogenes CIP 7 939; experiment: Sporicidal suspension test; assay type: cell-based
Method: as §2

[19] = test system: Orthopoxvirus from vaccine; assay type: cell-based
Adenovirus, type V = experiment: Virucidal suspension test; assay type: cell-based
human norovirus [20] = experiment: Norovirus suspension test; assay type: cell-based; conditions: 20-200 mg/L, within a contact time of 20 seconds
[21] = test system: wound pathogens including S. aureus, P. aeruginosa, E. coli, Enterococcus spp., and Candida spp.; experiment: In vitro antimicrobial studies against wound pathogens; assay type: cell-based; conditions: within a 15 seconds contact time, even at ≤150 ppm
human norovirus [22] = experiment: Norovirus carrier test; conditions: ceramic tiles and stainless steels, 1 min contact time, 20-200 ppm, RNA testing
[23] = test system: Salmonella typhimuium (strains TA1535, TA1537, TA98 and TA100); experiment: Bacterial mutagenicity; conditions: 241-252 ppm AFC, absence and presence of liver S9 fraction
[24] = test system: Escherichia coli (strain CM891); experiment: Bacterial mutagenicity; conditions: 241-252 ppm AFC, absence and presence of liver S9 fraction
[25] = hypochlorous acid 40-180 ppm, suspension test

OCl [hypochlorous acid]
% Reduction (% Kill) [1]: >99.999%
HOCl Solution Log10 [1]: ≤1
HOCl Solution Survivors [1]: <10
Log Reduction [1]: ≥5.20
% Reduction (% Kill) [2]: >99.995%
HOCl Solution Log10 [2]: ≤1
HOCl Solution Survivors [2]: <10
Log Reduction [2]: ≥4.96
% Reduction (% Kill) [3]: >99.999%
HOCl Solution Log10 [3]: ≤1
HOCl Solution Survivors [3]: <10
Log Reduction [3]: ≥5.43
% Reduction (% Kill) [4]: >99.999%
HOCl Solution Log10 [4]: ≤1
HOCl Solution Survivors [4]: <10
Log Reduction [4]: ≥5.08
% Reduction (% Kill) [5]: >99.999%
HOCl Solution Log10 [5]: ≤1
HOCl Solution Survivors [5]: <10
Log Reduction [5]: ≥5.59
% Reduction (% Kill) [6]: >99.999%
HOCl Solution Log10 [6]: ≤1
HOCl Solution Survivors [6]: <10
Log Reduction [6]: ≥5.18
% Reduction (% Kill) [7]: >99.999%
HOCl Solution Log10 [7]: ≤1
HOCl Solution Survivors [7]: <10
Log Reduction [7]: ≥5.04
% Reduction (% Kill) [8]: >99.999%
HOCl Solution Log10 [8]: ≤1
HOCl Solution Survivors [8]: <10
Log Reduction [8]: ≥5.08
% Reduction (% Kill) [9]: >99.999%
HOCl Solution Log10 [9]: ≤1
HOCl Solution Survivors [9]: <10
% Reduction (% Kill) [10]: >99.999%
HOCl Solution Log10 [10]: ≤1
HOCl Solution Survivors [10]: <10
Log Reduction [10]: ≥5.68
% Reduction (% Kill) [11]: >99.999%
HOCl Solution Log10 [11]: ≤1
HOCl Solution Survivors [11]: <10
Log Reduction [11]: ≥5.68
% Reduction (% Kill) [12]: >99.999%
HOCl Solution Log10 [12]: ≤1
HOCl Solution Survivors [12]: <10
Log Reduction [12]: ≥5.53
contact time after which pass was achieved [13, 25]: 5 min
Log Reduction ([13]; contact time 15 seconds): 3.15
Vashe Log10 ([13]; contact time 15 seconds): 2.52
Vashe Survivors ([13]; contact time 15 seconds): 330
% Reduction (% Kill) ([13]; contact time 15 seconds, listed as HOCl solution): 99.93%
% Reduction (% Kill) ([13]; contact time 15 seconds, listed as hypochlorous acid solution): > 99.9%
% Reduction (% Kill) ([13]; contact time 5 minutes): >99.999%
Log Reduction ([13]; contact time 5 minutes): ≥5.69
Vashe Log10 ([13]; contact time 5 minutes): ≤1
Vashe Survivors ([13]; contact time 5 minutes): <10
contact time after which pass was achieved [14, 25]: 15 s
Test Result (Log reduction) ([14]; in 5 min., 20° C. ± 1° C.): >10^5 in 5 min.
contact time after which pass was achieved [15, 25]: 15 s
Test Result (Log reduction) ([15]; in 5 min., 20° C. ± 1° C.): >10^4 in 5 min.
contact time after which pass was achieved [16, 25]: 15 s
Test Result (Log reduction) ([16]; in 5 min., 20° C. ± 1° C.): >10^4 in 5 min.
contact time after which pass was achieved [17, 25]: 60 min
Test Result (Log reduction) ([17]; in 60 min., 20° C. ± 1° C.): >10^6 in 60 min.
contact time after which pass was achieved [18, 25]: 60 min
Test Result (Log reduction) ([18]; in 60 min., 20° C. ± 1° C.): >10^6 in 60 min.
contact time after which pass was achieved [19, 25]: 15 min
Test Result (Log reduction) ([19]; in 15 min., 20° C. ± 1° C.): >10^4 in 15 min.
Test Result (Log reduction) (Adenovirus, type V): >10^4 in 15 min.
contact time after which pass was achieved (Adenovirus, type V): 15 min
reduction of human norovirus (human norovirus [20]): 3 log10
kill [21]: > 5 log
inactivation of human norovirus (human norovirus [22]): > 3 log10
mutagenic activity [23]: No evidence of mutagenic activity
mutagenic activity [24]: No evidence of mutagenic activity
